Read-outs that look alike come from different tables or passages of the source.
Tests used:
[1] = system: HT-22 cells (immortalized hippocampal neurons); assay: HT-22 Cell Neuroprotection Assay (glutamate insult, calcein AM viability); assay type: cell-based, murine; details: ~16 h
Experimental: HT-22 cells (immortalized hippocampal neurons of murine origin) were maintained in DMEM media (Life Technologies, Inc., Gaitherburg, MD) supplemented with 10% charcoal-stripped FBS (HyClone Laboratories, Inc., Logan, UT) and 20 µg/mL gentamycin, according to standard culture conditions.
Cells were plated at a density of 5,000 cells/well in clear-bottomed Nunc 96-well plates (Fisher Scientific, Orlando, FL) and allowed to incubate overnight. Steroids dissolved in DMSO were added at concentrations ranging from 0.01-10 µM and were co-administered with glutamate (10 mM or 20 mM). DMSO was used at concentrations of 0.1% vol/vol as a vehicle control and had no discernible effect on cell viability. After ~16 h of glutamate exposure, cells were rinsed with PBS, pH 7.4, and viability was assessed by the addition of 25 µM calcein AM (Molecular Probes, Inc., Eugene, OR) in PBS for 15 min at room temperature. Fluorescence was determined (excitation 485, emission 530) using a fluorescence FL600 microplate reader (Biotek, Winooski, VT). Cells that were lysed by addition of methanol were used for blank readings. All data were normalized to % cell death, as calculated by (control value - insult value)/control value x 100.

cortical neurons = assay: NMDA-induced neuronal cell death in mixed cortical neuron/glial cultures (Trypan blue counting); assay type: cell-based, mouse
Experimental: Glial cell cultures: Glial cell cultures were prepared from P1 mice. Briefly, cortex from P1 mice were dissected and digested with 0.025% trypsin for 30-40 min. After trituration, the cells were plated on poly-D-lysine/laminin coated glass-bottom dishes at a density of approximately 5 x 10^6 cells per dish. Cells were grown for 7-10 days in Eagle's minimal essential medium supplemented with 10% fetal bovine serum, 10% horse serum, 10 ng/ml epidermal growth factor, 2 mM glutamine and 20 mM glucose. Cultures were kept at 37°C in a humidified CO2 atmosphere until they reached confluence. Cultures were then used to support neurons (see below).
Cortical neuronal cultures: Cortical neurons were prepared from E15-16 mouse embryos. Dissociated cortical cells (at a density of 5x 10^6 cells per dish) were plated on a layer of confluent glial cells (7-10 days in vitro), into Eagle's minimal essential medium supplemented with 5% fetal bovine serum, 5% horse serum, 2 mM glutamine, and 21 mM glucose. Cultures were kept at 37°C in a humidified 5% CO2 atmosphere. After 3-5 days in vitro, non-neuronal cell division was halted by exposure to 10^-5 M cytosine arabinoside for 2 days, and cultures were shifted to a growth medium identical to the plating medium but lacking […]. Cultures 9-14 days in vitro were used for the experiments.
Neuronal cell death: Mixed neuron/glial cultures were exposure to NMDA (30 µM) for 24 hours in medium stock (MS) (minimal essential medium with 15.8 mM NaHCO3 and 20 mM glucose, pH 7.4) at 37°C. Cell death was assessed […] by counting cells that stained with Trypan blue (0.4% for 10 minutes at 37°C). Stained neurons were counted from three random fields per dish. For the experiments to test the neuroprotective effect of the 17-β-estradiol and the adamantyl-modified analog thereof, cultures were incubated with the drugs for various time periods prior to when NMDA was added to the medium. Results

[2] = 10 mM glutamate co-administered, read-out: Sterioid concentration needed to protect 50% of neurons killed by 10 mM Glutamate ED50
[3] = 20 mM glutamate co-administered, read-out: Sterioid concentration needed to protect 50% of neurons killed by 20 mM Glutamate ED50

Compound | EC50 [1, 2] [nM] | EC50 [1, 3] [nM] | further results
CC12CCC3c4cc(C56CC7CC(CC(C7)C5)C6)c(O)cc4CCC3C1CCC2O (stereo not drawn) [ZYC-33, Ent-(17β)-2-(1-Adamantyl)estra-1,3,5(10)-triene-3,17-diol] | 65 | 19 | –
Cc1c(O)c(C23CC4CC(CC(C4)C2)C3)cc2c1CC[C@@H]1[C@@H]2CC[C@]2(C)C(=O)CC[C@@H]12 [ZYC-26, 2-(1-admantanyl)-3-hydroxy-4-methylestra-1,3,5(10)-trien-17-one] | – | – | melting point: 262 to 263 °C
C[C@]12CC[C@@H]3c4cc(C56CC7CC(CC(C7)C5)C6)c(O)cc4CC[C@H]3[C@@H]1CC[C@@H]2O [ZYC-5, (17 β)-2-(1-Adamantyl)-estra-1,3,5(10)-triene-3,17-diol] | – | – | protective effect against NMDA-induced neuronal death (cortical neurons; 100 nM dosage, 30 µM NMDA for 24 hours (Figure 5)): 10%; protection from neuronal death due to NMDA exposure (cortical neurons; 1 µM drug, pre-incubation, 30 µM NMDA for 24 hours (Figure 5)): about half; effectiveness relative to 17-β-estradiol (cortical neurons; 1 µM versus 10 µM 17-β-estradiol (one-tenth the dosage)): more than three times more effective; neuronal survival versus pre-incubation time (cortical neurons; 1 µM, 1-12 hours pre-incubation prior to NMDA exposure (Figure 6)): no significant difference; neuronal protection versus pre-incubation time (cortical neurons; 1 µM, 24 hours pre-incubation prior to NMDA exposure (Figure 6)): best protection results
CC(C)(C)c1cc2c(cc1O)CCC1C2CCC2(C)C(O)CCC12 (stereo not drawn) [ZYC-34, Ent-(17β)-2-(1,1-dimethylethyl)estra-1,3,5(10)-triene-3,17-diol] | 240 | 260 | –
C[C@]12CC[C@@H]3c4ccc(O)cc4CC[C@H]3[C@@H]1CC[C@@H]2O [17-β Estradiol, 17-β-estradiol] | 2210 | 3010 | reduction of neuronal loss due to NMDA exposure (cortical neurons; 10 µM drug, pre-incubation, 30 µM NMDA for 24 hours (Figure 5)): about 15%
C[C@]12CC[C@@H]3c4ccc(O)cc4CC[C@H]3[C@@H]1CC[C@H]2O [17 α-Estradiol, 17α-estradiol] | 3100 | 16100 | –
C[C@@]12CC[C@H]3c4ccc(O)cc4CC[C@@H]3[C@H]1CC[C@H]2O (single isomer, unassigned; ent-17) [Ent-(17 β)-Estradiol, ent-17β-estradiol] | 1070 | 1270 | –
Cc1c(O)c(C(C)(C)C)cc2c1CC[C@@H]1[C@@H]2CC[C@]2(C)C(=O)CC[C@@H]12 [ZYC-25, 2-(1,1-Dimethylethyl)-3-hydroxy-4-methylestra-1,3,5(10)-trien-17-one] | – | – | melting point: 190 to 192 °C

Reference: US20060009438A2, “MODIFIED, HYDROXY-SUBSTITUTED AROMATIC STRUCTURES HAVING CYTOPROTECTIVE ACTIVITY” (Washington University, priority 2000, published 2006)
